From patent publication US20140011799A1 (Bristol-Myers Squibb Company, priority 2012, published 2014)

Columns and labels:
[1] = molecular target: T1, hepatic lipase (HL) (Homo sapiens, UniProt P11150); test: Hepatic lipase (HL) enzymatic assay, fluorescent substrate A10070 in DMPG vesicles; format: biochemical; conditions: HL partially purified from conditioned media of COS cells; compound preincubated 30 min at 37° C; read-out: HL IC50
T1 construct: made in house; host or cells: COS cells (conditioned medium, partially purified)
T1 sequence (P11150 23-499): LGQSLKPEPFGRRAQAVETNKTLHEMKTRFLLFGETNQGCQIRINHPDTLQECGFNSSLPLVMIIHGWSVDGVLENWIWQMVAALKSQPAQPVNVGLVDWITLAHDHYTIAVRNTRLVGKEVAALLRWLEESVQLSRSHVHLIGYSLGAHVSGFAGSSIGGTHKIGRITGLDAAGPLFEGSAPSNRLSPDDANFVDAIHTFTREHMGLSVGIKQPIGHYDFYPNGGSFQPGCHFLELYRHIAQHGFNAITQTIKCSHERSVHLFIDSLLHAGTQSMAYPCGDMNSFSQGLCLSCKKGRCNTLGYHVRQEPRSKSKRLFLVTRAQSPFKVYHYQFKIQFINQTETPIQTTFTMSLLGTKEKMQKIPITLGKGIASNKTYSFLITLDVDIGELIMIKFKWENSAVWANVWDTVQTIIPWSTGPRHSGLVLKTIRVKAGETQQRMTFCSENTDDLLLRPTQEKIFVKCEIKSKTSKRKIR
How it was run: (§1)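 Substrate A10070 sits in sonicated DMPG vesicles at 0.11 mole fraction. Lipase and compound preincubated 30 min, 37° C, in HEPES pH 8.0 buffer with CaCl2.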

[2] = molecular target: T2, Endothelial lipase (EL) (Homo sapiens, UniProt Q9Y5X9); test: Endothelial lipase (EL) enzymatic assay, fluorescent substrate A10070 in DMPG vesicles; format: biochemical; conditions: EL from conditioned media of HT-1080 cells; compound preincubated 30 min at 37° C; read-out: EL IC50
T2 construct: HT-1080 cells that were transformed using RAGE technology (Athersys) to overexpress endogenous EL; endogenous in cells; conditioned medium used
T2 sequence (Q9Y5X9 21-500): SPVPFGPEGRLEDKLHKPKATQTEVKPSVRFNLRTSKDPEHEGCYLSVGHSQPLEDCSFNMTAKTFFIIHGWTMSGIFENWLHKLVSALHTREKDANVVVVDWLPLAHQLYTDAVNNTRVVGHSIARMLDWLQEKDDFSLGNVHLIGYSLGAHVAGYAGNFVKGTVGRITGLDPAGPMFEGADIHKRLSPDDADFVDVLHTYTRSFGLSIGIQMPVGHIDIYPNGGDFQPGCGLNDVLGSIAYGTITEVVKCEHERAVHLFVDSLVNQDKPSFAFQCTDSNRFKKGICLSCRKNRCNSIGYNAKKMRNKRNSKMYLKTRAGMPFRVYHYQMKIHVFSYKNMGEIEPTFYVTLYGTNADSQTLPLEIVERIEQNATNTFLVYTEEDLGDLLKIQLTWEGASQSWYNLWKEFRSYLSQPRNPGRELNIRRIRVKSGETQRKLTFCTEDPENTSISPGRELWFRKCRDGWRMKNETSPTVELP
How it was run: as §1

IC50 [1] [nM] | IC50 [2] [nM] | Structure (SMILES)
307 | 20 | NS(=O)(=O)NCc1nnc(C(c2nc3ccc(-c4ccc(C(=O)N5CCOCC5)cc4)cc3s2)S(=O)(=O)CCNC(=O)OCc2ccccc2)o1 (stereo not shown) [Example 134, benzyl {2-[({6-[4-(4-morpholinylcarbonyl)phenyl]-1,3-benzothiazol-2-yl}{5-[(sulfamoylamino)methyl]-1,3,4-oxadiazol-2-yl}methyl)sulfonyl]ethyl} carbamate]
41 | 14 | COC1CN(C(=O)c2cccc(-c3ccc4nc(C(c5nnc(CNS(N)(=O)=O)o5)S(C)(=O)=O)sc4c3)c2)C1 (stereo not shown) [Example 267, N-({5-[methanesulfonyl({6-[3-(3-methoxyazetidine-1-carbonyl)phenyl]-1,3-benzothiazol-2-yl})methyl]-1,3,4-oxadiazol-2-yl}methyl)aminosulfonamide]
84 | < 10 | CS(=O)(=O)C(c1nnc(CC2SC(=O)NC2=O)o1)c1nc2ccc(-c3cnc(O)nc3)cc2s1 (stereo not shown) [Example 182, 5-((5-((Methylsulfonyl)(6-(2-oxo-1,2-dihydro-5-pyrimidinyl)-1,3-benzothiazol-2-yl)methyl)-1,3,4-oxadiazol-2-yl)methyl)-1,3-thiazolidine-2,4-dione]
76 | 11 | CC1(NC(=O)c2cccc(-c3ccc4nc(C(c5nnc(CC6(C)NC(=O)NC6=O)o5)S(C)(=O)=O)sc4c3)c2)CC1 (stereo not shown) [Example 224, 3-{2-[methanesulfonyl({5-[(4-methyl-2,5-dioxo-imidazolidin-4-yl)methyl]-1,3,4-oxadiazol-2-yl})methyl]-1,3-benzothiazol-6-yl}-N-(1-methylcyclopropyl) benzamide]
< 10 | < 10 | NS(=O)(=O)NCc1nnc(C(c2nc3ccc(-c4ccc(C(F)(F)F)cc4)cc3s2)S(=O)(=O)Cc2ccccc2)o1 (stereo not shown) [Example 128, N-((5-((benzylsulfonyl)(6-(4-(trifluoromethyl)phenyl)-1,3-benzothiazol-2-yl)methyl)-1,3,4-oxadiazol-2-yl)methyl) sulfamide]
2 | 1 | COCc1ccc(-c2ccc3nc(C(c4nnc(CNS(N)(=O)=O)o4)S(=O)(=O)Cc4ccc(OC(F)(F)F)cc4)sc3c2)cc1 (stereo not shown) [Example 237, N-{[5-({6-[4-(methoxymethyl)phenyl]-1,3-benzothiazol-2-yl}[4-(trifluoromethoxy)phenyl]methanesulfonylmethyl)-1,3,4-oxadiazol-2-yl]methyl} aminosulfonamide]
< 10 | < 10 | NS(=O)(=O)NCc1nnc(C(c2nc3ccc(-c4ccc(Cl)c(Cl)c4)cc3s2)S(=O)(=O)Cc2ccccc2)o1 (stereo not shown) [Example 148, N-((5-((benzylsulfonyl)(6-(3,4-dichlorophenyl)-1,3-benzothiazol-2-yl)methyl)-1,3,4-oxadiazol-2-yl)methyl)sulfamide]

Structure (SMILES) | IC50 [1] [nM] | IC50 [2] [nM]
NCCS(=O)(=O)C(c1nnc(CC2SC(=O)NC2=O)o1)c1nc2ccc(-c3ccccc3)cc2s1 (stereo not shown) [Example 184, 5-((5-(((2-aminoethyl)sulfonyl)(6-phenyl-1,3-benzothiazol-2-yl)methyl)-1,3,4-oxadiazol-2-yl)methyl)-1,3-thiazolidine-2,4-dione] | < 10 | < 10
